Results on twelve compounds are retold here after patent US4705900A, “Insecticidal alkenes” (Imperial Chemical Industries PLC, priority 1985, dated 1987).

Series [1] has as its system Heliothis viriscens. The experiment in a line: whole plant or invertebrate. As to conditions: in Gossypium hirsutum, 72 h, read-out: grading of mortality, HV. Type of series: in vivo, Heliothis viriscens (tobacco budworm). On the procedure: (§1) The activity of the Product was determined using a variety of insect pests. The Product was used in the form of liquid preparations containing 500 or 100 parts per million (ppm) by weight of the Product. The preparations were made by dissolving the Product in acetone and diluting the solutions with water containing 0.01% by weight of a wetting agent sold under the trade name "LISSAPOL" NX until the liquid preparations contained the required concentration of the Product. "Lissapol" is a Registered Trade Mark.
(§2) The test procedure adopted with regard to each pest was basically the same and comprised supporting a number of the pests on a medium which was usually a host plant or a foodstuff on which the pests feed, and treating either or both the pests and the medium with the preparations. The mortality of the pests was then assessed at periods usually varying from one to three days after the treatment.
(§3) The results of the tests are given in Table IV for each of the Products, at the rate in parts per million given in the second column as a grading of mortality designated as A, B or C wherein A indicates 80-100% mortality or knockdown, B indicates 50-79% mortality or knockdown and C indicates less than 50% mortality or knockdown.
(§4) In Table IV the pest organism used is designated by a letter code and the pests species, the support medium or food, and the type and duration of test is given in Table III.

The test system of series [2] is Nilaparvata lugens. Nature of the series: mortality of green leaf hopper (NL), contact test. Type of series: in vivo, Nilaparvata lugens (brown planthopper). As to conditions: 500 ppm, cabbage leaf, 6 days; for mortality at 500 ppm: Nilaparvata lugens, in Brassica oleracea, 144 h, read-out: grading of mortality, NL. The procedure:
as §1, §2, §3, §4

The subject of series [3] is Myzus persicae. Nature of the series: mortality of aphids (MP), contact test. As to conditions: 500 ppm, leaf, 2 days; for mortality at 500 ppm: Myzus persicae, 48 h, read-out: grading of mortality, MP. Type of series: in vivo, Myzus persicae (aphids). On the procedure: as §1, §2, §3, §4
For series [4], the system named is Musca domestica. Nature of the series: knockdown of houseflies (MD/KD). Type of series: in vivo, Musca domestica (houseflies - adults). To be noted: 500 ppm, cotton wool/sugar, 4 hours; for pest or weed control at 500 ppm: Musca domestica, read-out: grading of knockdown, MD/KD. On the procedure: as §1, §2
In case of the species Musca domestica (housefly), additional tests to determine the knockdown effect of the compounds were performed.
as §3, §4

Series [5] relates to Musca domestica. Nature of the series: mortality of houseflies (MD), contact test. Type of series: in vivo, Musca domestica (houseflies - adults). As to conditions: 500 ppm, cotton wool/sugar, 1 day; for mortality at 500 ppm: Musca domestica, 24 h, read-out: grading of mortality, MD. The procedure:
as §1, §2, §3, §4

In series [6] the test system is Chilo partellurs. Nature of the series: mortality of stem borers (CP), residual test. Type of series: in vivo, Chilo partellurs (Stem borers). As to conditions: 500 ppm, oil seed rape leaf, 3 days; for mortality at 500 ppm: Chilo, 72 h, read-out: grading of mortality, CP. On the procedure: as §1, §2, §3, §4
For series [7], the system named is Tetranychus urticae. The experiment in a line: mortality of red spider mites (TU), contact test. Type of series: in vivo, Tetranychus urticae (red spider mites - adult). As to conditions: 500 ppm, French bean leaf, 3 days; for mortality at 500 ppm: Tetranychus urticae, 72 h, read-out: grading of mortality, TU. The procedure: as §1, §2, §3, §4
(red spider mites - adult)

Series [8] concerns Diabrotica balteata. Nature of the series: mortality of rootworm larvae (DB), residual test. Type of series: in vivo, Diabrotica balteata (rootworm larvae). As to conditions: 500 ppm, filter paper/maize seed, 3 days; for mortality at 500 ppm: Diabrotica balteata, in Zea mays, 72 h, read-out: grading of mortality, DB. The procedure:
as §1, §2, §3, §4

Series [9] deals with Blattella germanica. Nature of the series: mortality of cockroach nymphs (BG), residual test. Type of series: in vivo, Blattella germanica (cockroach nymphs). To be noted: 500 ppm, plastic pot, 3 days; for mortality at 500 ppm: Blattella germanica, 72 h, read-out: grading of mortality, BG. The procedure:
as §1, §2, §3, §4

As to `CCC(C)(/C=C\c1ccc(Cl)cc1)COCc1cccc(Oc2ccccc2)c1` (stereo not shown) [Compound 26, 3-Ethyl-3-methyl-1-(4-chlorophenyl)-4-(3-phenoxybenzyloxy)but-1-ene], the mortality at 500 ppm in series [1], in [2], in series [3], in series [5], in [6] and in [7] was less than 50% throughout. In addition, the mortality at 500 ppm in series [8] and in [9] was less than 50% each time. Besides, the pest or weed control at 500 ppm in series [4] was less than 50%.

On to `CC(C)(/C=C\c1ccc(Cl)cc1)COCc1cccc(Oc2ccccc2)c1` [Compound 2, 3,3-Dimethyl-1-(4-chlorophenyl)-4-(3-phenoxybenzyloxy)but-1-ene], for which the mortality at 500 ppm was less than 50% in series [1]; less than 50% in series [2]; less than 50% in series [3]; less than 50% in series [5]; 50 to 79% in [6]; less than 50% in [7]. For the same compound, the mortality at 500 ppm in series [8] and in series [9] was less than 50% in each case. In [4], the pest or weed control at 500 ppm is less than 50%.

`CC(C)(C=Cc1ccccc1F)COCc1cccc(Oc2ccccc2)c1` [Compound 16, 3,3-Dimethyl-1-(2-fluorophenyl)-4-(3-phenoxybenzyloxy)but-1-ene]: the mortality at 500 ppm in series [1], in [2], in series [3], in series [5], in series [6] and in series [7] was less than 50% each time. The mortality at 500 ppm in series [8] and in [9] was less than 50% each time. Also, the pest or weed control at 500 ppm in series [4] is less than 50%.

Turning to `CC(C)(CCc1ccc(Cl)cc1)COCc1cccc(Oc2ccccc2)c1` [Compound 34, 3,3-dimethyl-1-(4-chlorophenyl)-4-(3-phenoxybenzyloxy)butane], the mortality at 500 ppm was 80 to 100% in series [1]; less than 50% in series [2]; less than 50% in series [3]; less than 50% in series [5]; 80 to 100% in series [6]; 50 to 79% in series [7]. The mortality at 500 ppm in [8] and in series [9] was less than 50% throughout. Also, the pest or weed control at 500 ppm in [4] is less than 50%.

`Cc1ccc(C=CC(C)(C)COCc2ccc(F)c(Oc3ccccc3)c2)cc1` [Compound 8, 3,3-Dimethyl-1-(4-methylphenyl)-4-(4-fluoro-3-phenoxybenzyloxy)but-1-ene]: the mortality at 500 ppm is 80 to 100% in [1]; 80 to 100% in [2]; 80 to 100% in series [3]; 80 to 100% in series [5]; 80 to 100% in [6]; less than 50% in series [7]. Moreover, the mortality at 500 ppm in series [8] lay within 80 to 100%; in series [9], 50 to 79%. Also, the pest or weed control at 500 ppm in series [4] was 80 to 100%.

As for `CCOc1ccc(/C=C/C(C)(C)COCc2ccc(F)c(Oc3ccccc3)c2)cc1` [Compound 10, 3,3-Dimethyl-1-(4-ethoxyphenyl)-4-(4-fluoro-3-phenoxybenzyloxy)but-1-ene], the mortality at 500 ppm in [1] is 80 to 100%; in series [2] it was less than 50%; in series [3], 50 to 79%; in series [5], 50 to 79%; in [6], 80 to 100%; in series [7], less than 50%. In addition, the mortality at 500 ppm in [8] and in series [9] was less than 50% in each case. Also, in [4], the pest or weed control at 500 ppm is 50 to 79%.

On to `CC(C)(C=Cc1ccc(Cl)cc1)COCc1ccc(F)c(Oc2ccccc2)c1` [Compound 7, 3,3-Dimethyl-1-(4-chlorophenyl)-4-(4-fluoro-3-phenoxybenzyloxy)but-1-ene], for which the mortality at 500 ppm is 80 to 100% in [1]; less than 50% in series [2]; 80 to 100% in series [3]; 80 to 100% in series [5]; 80 to 100% in series [6]; less than 50% in [7]. Moreover, the mortality at 500 ppm in [8] was 80 to 100%; in series [9], less than 50%. For the same compound, the pest or weed control at 500 ppm in series [4] is 80 to 100%.

Consider `CC(C)(C=Cc1ccc(F)c(F)c1)COCc1cccc(Oc2ccccc2)c1` [Compound 18, 3,3-Dimethyl-1-(3,4-difluorophenyl)-4-(3-phenoxybenzyloxy)but-1-ene], for which the mortality at 500 ppm in [1] is 80 to 100%; in [2] it was less than 50%; in series [3], less than 50%; in [5] it was less than 50%; in series [6], 80 to 100%; in series [7] it was 50 to 79%. For the same compound, the mortality at 500 ppm in series [8] and in [9] was less than 50% throughout. Moreover, in [4], the pest or weed control at 500 ppm is less than 50%.

As for `CCC(C)(/C=C/c1ccc(Cl)cc1)COCc1cccc(Oc2ccccc2)c1` (stereo not shown) [Compound 25, 3-Ethyl-3-methyl-1-(4-chlorophenyl)-4-(3-phenoxybenzyloxy)but-1-ene], the mortality at 500 ppm in series [1] is 80 to 100%; in [2], 50 to 79%; in series [3], 50 to 79%; in series [5], 50 to 79%; in series [7] it was less than 50%; in series [8] it was less than 50%. Also, the mortality at 500 ppm in [9] fell in the range of 80 to 100%. Also, the pest or weed control at 500 ppm in [4] was less than 50%.

For the compound `COc1ccc(/C=C/C(C)(C)COCc2ccc(F)c(Oc3ccccc3)c2)cc1` [Compound 24, 3,3-dimethyl-1-(4-methoxyphenyl)-4-(4-fluoro-3-phenoxybenzyloxy)but-1-ene], the mortality at 500 ppm was 50 to 79% in series [1]; 80 to 100% in series [2]; 50 to 79% in series [3]; 80 to 100% in series [5]; 80 to 100% in [6]; 50 to 79% in [7]. For the same compound, the mortality at 500 ppm in series [8] and in series [9] was less than 50% throughout. In addition, the pest or weed control at 500 ppm in series [4] is 80 to 100%.

As for `CC(C)(C=Cc1ccccc1)COCc1ccc(F)c(Oc2ccccc2)c1` [Compound 9, 3,3-Dimethyl-1-phenyl-4-(4-fluoro-3-phenoxybenzyloxy)but-1-ene], the mortality at 500 ppm in [1] is 80 to 100%; in [2], 80 to 100%; in [3], 80 to 100%; in series [5], 80 to 100%; in series [6], 80 to 100%; in [7] it was less than 50%. In addition, the mortality at 500 ppm in series [8] is 80 to 100%; in series [9] it was less than 50%. In addition, the pest or weed control at 500 ppm in series [4] is 80 to 100%.

Consider `CC(C)(C=Cc1ccc(Cl)cc1)COCc1cccc(Oc2ccccc2)c1` [Compound 13, 3,3-Dimethyl-1-(4-chlorophenyl)-4-(3-phenoxybenzyloxy)but-1-ene], for which, in series [2] (8640 min), the “grading of mortality, NL” value is listed as “A (A indicates 80-100% mortality or knockdown)”. The “grading of mortality, MP” value in [3] (2880 min) was “A (A indicates 80-100% mortality or knockdown)”. The “grading of knockdown, MD/KD” value in series [4] was “A (A indicates 80-100% mortality or knockdown)”. For the same compound, the “grading of mortality, MD” value in [5] is given as “B (B indicates 50-79% mortality or knockdown)”. The “grading of mortality, CP” value in series [6] is recorded as “A (A indicates 80-100% mortality or knockdown)”. In addition, the “grading of mortality, TU” value in [7] is recorded as “B (B indicates 50-79% mortality or knockdown)”. Also, the “grading of mortality, DB” value in [8] (4320 min) was “A (A indicates 80-100% mortality or knockdown)”. For the same compound, the “grading of mortality, BG” value in series [9] was “C (C indicates less than 50% mortality or knockdown)”.
